Source: patent US6607727B1, “Peptides for inducing cytotoxic T lymphocyte responses to hepatitus B virus” (priority 1991, dated 2003)

Key:
[1] = system: PBMCs from a patient with acute hepatitis; test: CTL response to HBx peptide in PBMCs of a patient with acute hepatitis, HLA-A2 matched peptide-pulsed targets; assay type: cell-based, human
[2] = system: HBpol455-463 specific CTL; assay type: cell-based, human
[3] = system: PBMCs from a patient with acute hepatitis; test: CTL response to HBenv 348-357 peptide in PBMCs of a patient with acute hepatitis, HLA-A2 matched targets; assay type: cell-based, human
Method: The CTL induced by the HBenv 348-357 peptide were identified in PBMCs from a patient with acute hepatitis according to the procedure set forth in Example XV, except that the PMBCs were stimulated with individual peptide rather than peptide mixtures. The resulting CTL line was then tested for the ability to kill HLA-A2 matched target cells that were pulsed with the peptide or that expressed endogenous envelope antigens of ayw or adw subtypes.

[4] = system: CTL clone 3D11 (HLA A31 restricted); assay type: cell-based, human
[5] = system: CTL clone 2D7 (HLA Aw68 restricted); assay type: cell-based, human
CTL clones 3D11 and 2D7 = settings: peptide 10-3 μM to 1μM

AIRLKVFVL [HBx peptide 126-134 with the amino terminal residue substituted with alanine]
induction of specific CTL response by peptide [1]: CTL were stimulated

EIRLKVFVL
induction of specific CTL response by peptide [1]: not able to induce a specific CTL response | recognition by CTL induced with the analog peptide AIRLKVFVL [1]: also recognized the peptide with the wild type sequence

GVSRYVARL [variant of HBpol455-463 (ayw isolate)]
recognition by GLSRYVARL (HBpol455-463) induced CTL [2]: poorly recognized

Gly-Leu-Ser-Pro-Thr-Val-Trp-Leu-Ser-Val (GLSPTVWLSV; printed: Gly-Leu-Ser-Pro-Thr-Val-Trp-Leu-Ser-Val) [HBenv peptide 348-357]
CTL recognition of envelope antigen of the adw subtype [3]: did not recognize the adw subtype | CTL response to target cells pulsed with peptide ([3]; effector:target cell ratio of 3:1): responded to target cells

STLPETTVVRR [141-151]
Clone 3D11 Restriction Element A31 Percent 51CR Release [4]: 69% | Clone 2D7 Restriction Element Aw68 Percent 51CR Release [5]: 66% | efficiency of target lysis in dose titration (CTL clones 3D11 and 2D7): minimal optimally recognized epitope recognized by both of the CTL clones
